Data as given in article PMC5405701 (ChemMedChem, 2017).
Where “and” joins values, the source holds several entries; their conditions need not be identical. Identical values can stand only once.

What follows are compounds tested on MCF-7 breast cancer cells (assay: antiproliferative activity, MTT assay, MCF-7). Settings: Homo sapiens, MCF7, 72 h, read-out: MCF-7 Inhibition (%).

Structure (SMILES) | inhibition at 10 µM [%]
Cc1cc(O)ccc1-c1c[se]cc1-c1ccc(O)cc1C [Compound 4b, 3,4-Bis(4-hydroxy-2-methylphenyl)selenophene] | 0
Cc1cc(-c2c[se]cc2-c2ccc(O)c(C)c2)ccc1O [Compound 4c, 3,4-Bis(4-hydroxy-3-methylphenyl)selenophene] | 0
Oc1ccc(-c2c[se]cc2-c2ccc(O)c(F)c2)cc1F [Compound 4d, 3,4-Bis(3-fluoro-4-hydroxyphenyl)selenophene] | 0
Oc1ccc(-c2c[se]cc2-c2ccc(O)cc2F)c(F)c1 [Compound 4e, 3,4-Bis(2-fluoro-4-hydroxyphenyl)selenophene] | 0
Oc1ccc(-c2cc(Br)c(-c3ccc(O)cc3)[se]2)cc1 [Compound 6a, 3-Bromo-2,5-bis(4-hydroxyphenyl)selenophene] | 0
Cc1cc(-c2cc(Br)c(-c3ccc(O)c(C)c3)[se]2)ccc1O [Compound 6c, 3-Bromo-2,5-bis(4-hydroxy-3-methylphenyl)selenophene] | 26.1

The compounds below were run against ERα (Homo sapiens, UniProt P03372) (assay: cell-based). Settings: not given.
Sequence of ERα (P03372 whole entry): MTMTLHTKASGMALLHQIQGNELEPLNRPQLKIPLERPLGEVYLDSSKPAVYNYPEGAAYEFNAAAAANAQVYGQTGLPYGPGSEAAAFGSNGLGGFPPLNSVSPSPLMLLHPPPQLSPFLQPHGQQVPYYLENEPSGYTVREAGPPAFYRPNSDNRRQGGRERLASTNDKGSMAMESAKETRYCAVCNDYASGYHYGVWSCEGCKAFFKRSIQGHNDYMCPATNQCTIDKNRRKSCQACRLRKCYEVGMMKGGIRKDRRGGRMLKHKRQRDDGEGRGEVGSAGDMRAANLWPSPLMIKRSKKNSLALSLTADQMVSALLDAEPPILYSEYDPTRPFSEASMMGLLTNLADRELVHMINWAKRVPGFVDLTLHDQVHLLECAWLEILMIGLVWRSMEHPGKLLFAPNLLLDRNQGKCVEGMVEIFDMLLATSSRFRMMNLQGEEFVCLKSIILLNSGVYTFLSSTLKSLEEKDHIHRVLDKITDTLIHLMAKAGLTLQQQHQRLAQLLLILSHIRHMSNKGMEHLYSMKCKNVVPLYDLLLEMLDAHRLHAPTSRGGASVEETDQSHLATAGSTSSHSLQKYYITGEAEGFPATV
Assay type: cell-based

Structure (SMILES) | EC50 [nM]
Cc1cc(-c2c[se]cc2-c2ccc(O)c(C)c2)ccc1O [Compound 4c, 3,4-Bis(4-hydroxy-3-methylphenyl)selenophene] | 320
Oc1ccc(-c2cc(Br)c(-c3ccc(O)cc3)[se]2)cc1 [Compound 6a, 3-Bromo-2,5-bis(4-hydroxyphenyl)selenophene] | 15

Same assay, conditions: maximal response as percentage of response to 10^−8 M E2, HEK293T

Structure (SMILES) | Agonist Mode ERα Eff (%E2)
Cc1cc(O)ccc1-c1c[se]cc1-c1ccc(O)cc1C [Compound 4b, 3,4-Bis(4-hydroxy-2-methylphenyl)selenophene] | 19 ± 4
Cc1cc(-c2c[se]cc2-c2ccc(O)c(C)c2)ccc1O [Compound 4c, 3,4-Bis(4-hydroxy-3-methylphenyl)selenophene] | 32 ± 8
Oc1ccc(-c2c[se]cc2-c2ccc(O)c(F)c2)cc1F [Compound 4d, 3,4-Bis(3-fluoro-4-hydroxyphenyl)selenophene] | 21 ± 6
Oc1ccc(-c2c[se]cc2-c2ccc(O)cc2F)c(F)c1 [Compound 4e, 3,4-Bis(2-fluoro-4-hydroxyphenyl)selenophene] | 35 ± 5
Oc1ccc(-c2cc(Br)c(-c3ccc(O)cc3)[se]2)cc1 [Compound 6a, 3-Bromo-2,5-bis(4-hydroxyphenyl)selenophene] | 69 ± 11
Cc1cc(-c2cc(Br)c(-c3ccc(O)c(C)c3)[se]2)ccc1O [Compound 6c, 3-Bromo-2,5-bis(4-hydroxy-3-methylphenyl)selenophene] | −3 ± 1

Same assay, conditions: reporter gene assay, HEK293T

Structure (SMILES) | transcriptional activity profile on ERα
Oc1ccc(-c2cc(Br)c(-c3ccc(O)cc3)[se]2)cc1 [Compound 6a, 3-Bromo-2,5-bis(4-hydroxyphenyl)selenophene] | full agonist

The compounds below were run against ERβ (Homo sapiens, UniProt Q92731) (assay: cell-based). Settings: not given.
Sequence of ERβ (Q92731 whole entry): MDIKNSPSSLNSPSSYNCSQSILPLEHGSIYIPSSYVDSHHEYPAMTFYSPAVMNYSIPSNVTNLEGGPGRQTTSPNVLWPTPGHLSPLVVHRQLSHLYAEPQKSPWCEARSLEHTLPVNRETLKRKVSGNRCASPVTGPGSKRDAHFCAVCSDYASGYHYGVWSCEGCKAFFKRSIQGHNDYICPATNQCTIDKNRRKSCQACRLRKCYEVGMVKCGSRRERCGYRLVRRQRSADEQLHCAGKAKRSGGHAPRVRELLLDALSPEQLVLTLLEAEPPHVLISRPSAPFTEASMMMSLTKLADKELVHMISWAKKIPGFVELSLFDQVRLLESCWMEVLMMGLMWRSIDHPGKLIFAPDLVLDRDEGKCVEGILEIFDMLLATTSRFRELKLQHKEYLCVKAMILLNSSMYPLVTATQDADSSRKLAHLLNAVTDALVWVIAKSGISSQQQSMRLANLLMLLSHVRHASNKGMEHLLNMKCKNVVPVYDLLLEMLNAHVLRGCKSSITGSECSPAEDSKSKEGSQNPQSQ
Assay type: cell-based

Structure (SMILES) | EC50 [nM]
Cc1cc(O)ccc1-c1c[se]cc1-c1ccc(O)cc1C [Compound 4b, 3,4-Bis(4-hydroxy-2-methylphenyl)selenophene] | 34
Cc1cc(-c2c[se]cc2-c2ccc(O)c(C)c2)ccc1O [Compound 4c, 3,4-Bis(4-hydroxy-3-methylphenyl)selenophene] | 1150
Oc1ccc(-c2cc(Br)c(-c3ccc(O)cc3)[se]2)cc1 [Compound 6a, 3-Bromo-2,5-bis(4-hydroxyphenyl)selenophene] | 13
Cc1cc(-c2cc(Br)c(-c3ccc(O)c(C)c3)[se]2)ccc1O [Compound 6c, 3-Bromo-2,5-bis(4-hydroxy-3-methylphenyl)selenophene] | 441

Same assay, conditions: HEK-293T, 24 h, read-out: Agonist Mode ERβ Eff (%E2)

Structure (SMILES) | Emax [%]
Cc1cc(O)ccc1-c1c[se]cc1-c1ccc(O)cc1C [Compound 4b, 3,4-Bis(4-hydroxy-2-methylphenyl)selenophene] | 62 ± 8
Cc1cc(-c2c[se]cc2-c2ccc(O)c(C)c2)ccc1O [Compound 4c, 3,4-Bis(4-hydroxy-3-methylphenyl)selenophene] | 54 ± 10
Oc1ccc(-c2c[se]cc2-c2ccc(O)c(F)c2)cc1F [Compound 4d, 3,4-Bis(3-fluoro-4-hydroxyphenyl)selenophene] | 21 ± 3
Oc1ccc(-c2c[se]cc2-c2ccc(O)cc2F)c(F)c1 [Compound 4e, 3,4-Bis(2-fluoro-4-hydroxyphenyl)selenophene] | 17 ± 2
Oc1ccc(-c2cc(Br)c(-c3ccc(O)cc3)[se]2)cc1 [Compound 6a, 3-Bromo-2,5-bis(4-hydroxyphenyl)selenophene] | 40 ± 5
Cc1cc(-c2cc(Br)c(-c3ccc(O)c(C)c3)[se]2)ccc1O [Compound 6c, 3-Bromo-2,5-bis(4-hydroxy-3-methylphenyl)selenophene] | 46 ± 1

Same assay, conditions: reporter gene assay, HEK293T

Structure (SMILES) | transcriptional activity profile on ERβ
Oc1ccc(-c2cc(Br)c(-c3ccc(O)cc3)[se]2)cc1 [Compound 6a, 3-Bromo-2,5-bis(4-hydroxyphenyl)selenophene] | partial agonist

The compounds below were run against human ERβ ligand binding domain (LBD) (Homo sapiens, UniProt Q92731) (assay: competitive fluorometric). Settings: ratio of RBA ERβ to RBA ERα.
Sequence of human ERβ ligand binding domain (LBD) (Q92731 264-498 limits assumed): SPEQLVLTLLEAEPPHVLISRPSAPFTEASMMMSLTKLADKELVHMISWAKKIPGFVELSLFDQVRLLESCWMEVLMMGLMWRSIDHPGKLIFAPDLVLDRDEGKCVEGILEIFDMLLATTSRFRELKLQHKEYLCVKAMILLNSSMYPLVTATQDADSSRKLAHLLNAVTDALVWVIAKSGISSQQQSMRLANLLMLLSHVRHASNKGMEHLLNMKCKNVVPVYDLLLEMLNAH

Structure (SMILES) | β/α
Cc1cc(O)ccc1-c1c[se]cc1-c1ccc(O)cc1C [Compound 4b, 3,4-Bis(4-hydroxy-2-methylphenyl)selenophene] | 24.81
Cc1cc(-c2c[se]cc2-c2ccc(O)c(C)c2)ccc1O [Compound 4c, 3,4-Bis(4-hydroxy-3-methylphenyl)selenophene] | 0.87
Oc1ccc(-c2c[se]cc2-c2ccc(O)c(F)c2)cc1F [Compound 4d, 3,4-Bis(3-fluoro-4-hydroxyphenyl)selenophene] | 2.67
Oc1ccc(-c2c[se]cc2-c2ccc(O)cc2F)c(F)c1 [Compound 4e, 3,4-Bis(2-fluoro-4-hydroxyphenyl)selenophene] | 2.19
Oc1ccc(-c2cc(Br)c(-c3ccc(O)cc3)[se]2)cc1 [Compound 6a, 3-Bromo-2,5-bis(4-hydroxyphenyl)selenophene] | 2.32
Cc1cc(-c2cc(Br)c(-c3ccc(O)c(C)c3)[se]2)ccc1O [Compound 6c, 3-Bromo-2,5-bis(4-hydroxy-3-methylphenyl)selenophene] | 4.40

Each compound was assayed against T1, human ERα ligand binding domain (LBD) (Homo sapiens, UniProt P03372) (assay: competitive fluorometric). Settings: relative to parent 2a (compared to 2a and 4a).
T1 sequence (P03372 311-547 limits assumed): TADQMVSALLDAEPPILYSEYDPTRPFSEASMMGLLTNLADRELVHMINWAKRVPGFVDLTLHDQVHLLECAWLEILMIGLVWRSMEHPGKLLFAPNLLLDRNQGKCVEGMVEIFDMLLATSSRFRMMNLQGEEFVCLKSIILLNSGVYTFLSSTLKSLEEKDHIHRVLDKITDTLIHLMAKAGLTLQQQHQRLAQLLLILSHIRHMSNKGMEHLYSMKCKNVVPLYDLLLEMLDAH

Structure (SMILES) | fold increase in binding affinity for ERα over 2a
Oc1ccc(-c2cc(Br)c(-c3ccc(O)cc3)[se]2)cc1 [Compound 6a, 3-Bromo-2,5-bis(4-hydroxyphenyl)selenophene] | 8 fold and ~10 fold
